# Experimental data published in ChEMBL document CHEMBL1806384, “Identification of benzofuran-4,5-diones as novel and selective non-hydroxamic acid, non-peptidomimetic based inhibitors of human peptide deformylase” (Bioorg Med Chem Lett, 2011).
# Tests used:
# [1] = Cytotoxicity against human ALL3 cells; assay type: functional, cell-based
# HEK293 = assay: Cytotoxicity against human HEK293 cells; assay type: cell-based
# HL-60 [2] = assay: Cytotoxicity against human HL60 cells; assay type: functional, cell-based
# [3] = molecular target: T1, Peptide deformylase, mitochondrial (Homo sapiens) (UniProt Q9HBH1); assay: Inhibition of human peptide deformylase at 100 uM after 1 hr by fluorescence polarization based competition assay
# T1 sequence (whole entry): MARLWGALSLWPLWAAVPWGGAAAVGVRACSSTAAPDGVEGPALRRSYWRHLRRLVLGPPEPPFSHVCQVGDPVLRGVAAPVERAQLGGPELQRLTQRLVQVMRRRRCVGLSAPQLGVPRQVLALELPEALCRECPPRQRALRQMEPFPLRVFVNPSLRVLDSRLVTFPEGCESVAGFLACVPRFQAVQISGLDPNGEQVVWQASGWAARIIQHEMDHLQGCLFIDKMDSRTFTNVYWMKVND
# Peptide deformylase = molecular target: T2, Peptide deformylase (Escherichia coli, UniProt Q9JN24); assay: Inhibition of Escherichia coli peptide deformylase after 1 hr by fluorescence polarization based competition assay
# T2 sequence (Q9JN24 whole entry): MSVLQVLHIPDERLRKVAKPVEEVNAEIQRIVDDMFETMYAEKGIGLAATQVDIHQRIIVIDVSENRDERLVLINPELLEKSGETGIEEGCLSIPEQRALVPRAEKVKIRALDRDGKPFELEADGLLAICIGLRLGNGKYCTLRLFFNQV
# [4] = molecular target: T3, Peptide deformylase (Escherichia coli) (UniProt Q9JN24); assay: Inhibition of Escherichia coli peptide deformylase at 100 uM after 1 hr by fluorescence polarization based competition assay
# T3 sequence (whole entry): T2 sequence (Q9JN24 whole entry)
# Jurkat = assay: Cytotoxicity against human Jurkat cells; assay type: functional, cell-based
# [5] = molecular target: T4, Interstitial collagenase (Homo sapiens) (UniProt P03956); assay: Inhibition of human recombinant MMP1 at 100 uM after 1 hr by fluorescence polarization based competition assay
# T4 sequence (whole entry): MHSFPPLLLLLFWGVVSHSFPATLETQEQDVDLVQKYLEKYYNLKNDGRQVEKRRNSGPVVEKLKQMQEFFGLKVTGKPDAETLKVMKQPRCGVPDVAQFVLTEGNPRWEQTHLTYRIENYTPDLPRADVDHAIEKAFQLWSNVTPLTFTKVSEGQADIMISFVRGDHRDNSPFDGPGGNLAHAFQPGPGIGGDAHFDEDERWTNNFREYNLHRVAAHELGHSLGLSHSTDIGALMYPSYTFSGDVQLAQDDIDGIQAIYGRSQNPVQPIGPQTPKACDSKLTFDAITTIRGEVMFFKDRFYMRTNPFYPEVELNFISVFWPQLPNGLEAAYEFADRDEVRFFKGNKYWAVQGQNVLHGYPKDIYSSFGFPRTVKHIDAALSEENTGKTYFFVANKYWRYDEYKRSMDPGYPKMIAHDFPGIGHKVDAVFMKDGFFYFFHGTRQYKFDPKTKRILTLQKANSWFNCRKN
# [6] = molecular target: T5, Aminopeptidase N (Sus scrofa) (UniProt P15145); assay: Inhibition of porcine kidney microsomal aminopeptidase N at 100 uM after 1 hr by fluorescence polarization based competition assay
# T5 sequence (whole entry): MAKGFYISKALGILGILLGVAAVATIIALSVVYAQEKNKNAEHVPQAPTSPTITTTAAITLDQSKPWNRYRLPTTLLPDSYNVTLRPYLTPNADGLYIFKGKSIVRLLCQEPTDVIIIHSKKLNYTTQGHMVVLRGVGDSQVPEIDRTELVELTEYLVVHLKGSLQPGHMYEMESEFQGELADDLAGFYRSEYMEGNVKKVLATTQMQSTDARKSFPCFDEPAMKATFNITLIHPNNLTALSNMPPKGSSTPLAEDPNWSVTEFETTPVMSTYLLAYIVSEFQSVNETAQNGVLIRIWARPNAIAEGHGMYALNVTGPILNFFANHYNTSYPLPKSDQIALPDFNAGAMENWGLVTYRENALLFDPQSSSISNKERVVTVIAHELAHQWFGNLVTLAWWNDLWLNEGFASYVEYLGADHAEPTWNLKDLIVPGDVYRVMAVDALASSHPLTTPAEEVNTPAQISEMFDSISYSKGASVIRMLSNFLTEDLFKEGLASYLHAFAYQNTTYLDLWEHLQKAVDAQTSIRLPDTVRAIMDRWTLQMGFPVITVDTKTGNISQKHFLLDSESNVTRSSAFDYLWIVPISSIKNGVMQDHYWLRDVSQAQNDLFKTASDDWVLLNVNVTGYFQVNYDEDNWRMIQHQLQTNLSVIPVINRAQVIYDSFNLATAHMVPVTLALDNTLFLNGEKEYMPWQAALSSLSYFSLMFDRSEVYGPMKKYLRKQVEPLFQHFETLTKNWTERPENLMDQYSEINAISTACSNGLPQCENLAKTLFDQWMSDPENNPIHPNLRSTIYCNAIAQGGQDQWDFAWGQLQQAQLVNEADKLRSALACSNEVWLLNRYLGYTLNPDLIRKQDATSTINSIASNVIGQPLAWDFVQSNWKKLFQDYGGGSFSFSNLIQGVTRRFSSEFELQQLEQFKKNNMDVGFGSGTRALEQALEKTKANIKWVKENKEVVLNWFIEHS
# MOLT-3 = assay: Cytotoxicity against human MOLT3 cells; assay type: functional, cell-based
# [7] = Cytotoxicity against human CWR22 cells; assay type: functional, cell-based
# HL-60 [8] = assay: Cytotoxicity against human vincristine-resistant HL60 cells; assay type: functional, cell-based
# [9] = Cytotoxicity against human Meso47 cells; assay type: functional, cell-based
# Y79 = assay: Cytotoxicity against human Y79 cells; assay type: functional, cell-based
Compound,IC50 [1] [µM],IC50 (HEK293) [µM],IC50 (HL-60 [2]) [µM],inhibition [3] [%],IC50 (Peptide deformylase) [µM],inhibition [4] [%],IC50 (Jurkat) [µM],inhibition [5] [%],inhibition [6] [%],IC50 (MOLT-3) [µM],IC50 [7] [µM],IC50 (HL-60 [8]) [µM],IC50 [9] [µM],IC50 (Y79) [µM]
COc1ccc(C(=O)c2coc3c2C(=O)C(=O)C(Cl)=C3)cc1,34,100,32,100,> 100,11,57,11,54,47,,,,
COc1ccc(C(=O)c2coc3ccc(O)cc23)cc1,100,100,100,0,,0,33,0,4,100,100,100,100,100
O=C(c1ccccc1)c1coc2ccc(O)cc12,100,100,100,11,,7,100,0,10,100,100,100,100,100
O=C(c1ccccc1)c1coc2c(Cl)c(Cl)c(O)cc12,100,100,100,24,,1,100,0,6,100,100,100,100,100
COc1cc(C(=O)c2coc3c(Cl)c(Cl)c(O)cc23)cc(OC)c1OC,100,100,100,18,,2,100,0,2,100,100,100,100,100
COc1ccc(C(=O)c2coc3c(Br)cc(O)c(Br)c23)cc1,68,10,9,0,,0,8,0,0,10,57,40,100,64
COc1cc(C(=O)c2coc3c2C(=O)C(=O)c2ccccc2-3)cc(OC)c1OC,,,,5,,7,,0,10,,,,,
COc1cc(C(=O)c2coc3c(Br)c(Br)c(O)cc23)cc(OC)c1OC,60,100,79,5,,7,62,0,10,100,100,100,100,100
COc1ccc(C(=O)c2coc3c(Cl)c(Cl)c(O)cc23)cc1OC,100,100,100,0,,0,100,0,0,100,100,100,100,100
COc1ccc(C(=O)c2coc3c(Cl)cc(O)c(Cl)c23)cc1,100,100,100,9,,0,100,0,0,100,100,100,100,100
COc1ccc(C(=O)c2coc3c(Br)c(Br)c(O)cc23)cc1OC,100,52,57,0,,0,37,0,0,52,100,100,100,100
COc1ccc(C(=O)c2coc3c2C(=O)C(=O)c2ccccc2-3)cc1,,,,0,,3,,2,0,,,,,
COc1ccc(C(=O)c2coc3cc(Cl)c(O)c(Cl)c23)cc1,100,32,19,26,,3,24,0,0,32,100,100,100,100
COc1ccc(C(=O)c2coc3c(Cl)c(Cl)c(O)cc23)cc1,100,100,100,13,,0,100,14,0,100,100,100,100,100
COc1ccc(C(=O)c2coc3c(Br)cc(O)cc23)cc1,100,100,100,11,,9,100,0,0,100,100,100,100,100
COc1ccc(C(=O)c2coc3ccc(O)c(Br)c23)cc1,100,100,100,0,,0,100,0,0,100,100,100,100,100
COc1ccc(C(=O)c2coc3c(Br)c(Br)c(O)cc23)cc1,100,100,100,0,,3,100,2,0,100,100,100,100,100
COc1ccc(C(=O)c2coc3cc(Br)c(O)cc23)cc1,100,72,100,0,,0,100,10,0,72,47,100,100,100
COc1ccc(C(=O)c2coc3c2C(=O)C(=O)c2ccccc2-3)cc1OC,,,,0,,0,,0,0,,,,,
